Values of other authors as cited in US20060275209A1, “Methods of [11c]-radiolabelling phenothiazine and phenothiazine-like compounds” (priority 2003, published 2006).

Legend:
[1] = forms a charge transfer complex with the pigment
melanoma cells = conditions: diffuses through the cellular membranes

CN(C)c1ccc2nc3ccc(N(C)C)cc3[s+]c2c1.[Cl-] [Methylene blue, 3,7-bis(dimethylamino)phenothiazine-5-ium chloride]
affinity to melanin [1]: very high affinity
accumulation in melanoma cells (melanoma cells): accumulates selectively
